Results taken from patent US20210267944A1 (BioXcel Therapeutics, Inc., priority 2018, published 2021).
Several values for one entry are separate records, joined by “and”; a condition that tells them apart may be missing. Identical values can stand only once. Entries after “also recorded” stand apart in the source; their conditions may differ. Counter-ions that a name gives are not always drawn. Like-named read-outs stand apart in the source and are kept apart here.

Experiments:
[1] = test system: subjects suffering from schizophrenia
Text: The level of agitation in subjects may be assessed herein using the PEC (Positive and Negative Symptom Scale—Excitatory Component) scale, which is a known five item scale that measures symptoms of agitation, namely excitement, tension, hostility, uncooperativeness, and poor impulse control, with each item rated from 1 (absent) to 7 (extremely severe). Combined scores range from 5 to 35. A score of 20 or more corresponds to severe agitation.

[2] = clinical; details: human, in vivo
Method: These samples were assayed for the concentration of the drug in those participants randomized to test product.

[3] = test system: healthy, elderly (55-75 years of age) volunteers
Method: Subjects in the initial cohorts were initially healthy, elderly (55-75 years of age) volunteers. Subjects in later cohort were elderly volunteers healthy except for having mild probable SDAT. Both sexes were included in all cohorts.
Each infusion rate was administered for 30 minutes. After 30 minutes, the dose was increased by an additional 0.1 mcg/kg/hr until the subject achieved a predetermined level of sedation as assessed by the Richmond Agitation-Sedation Scale (RASS) or a pre-specified reduction in BP and/or HR. The dosing rate was adjusted for subsequent cohorts based on the results of preceding cohorts. Continuous assessment was made of the level of arousal, BP and HR. […] Statistics were descriptive and correlational in terms of pharmacodynamic and pharmacokinetic relationships.
The participants in cohort 1 were designated by subject codes 11XX and 91XX, and those in cohort 2 were designated by subject codes 12XX. Time needed to resolve refers to the time from the cessation of the infusion to the resolution of the pharmacodynamic effect of the drug on either arousal or blood pressure and heart rate.

[4] = test system: agitated subjects with senile dementia of Alzheimer's type; details: for RASS score: per subject
Method: Clinical evaluation was performed as follows. Patients were screened up to 4 weeks prior to randomization. After obtaining the written informed consent from subjects, subjects were allowed to participate in the study related screening activities. Screening activities included clinical laboratory tests, physical examination, ECG, etc. After completion of all screening related activities, the eligible subjects [male and female subjects 55 to 75 years of age; known cases of mild probable Alzheimer's disease (SDAT) in accordance with NINCDS/ADRDA criteria for diagnosis of Alzheimer's disease with a Mini-Mental State Score of between 20 to 24; RASS score of +1 or +2 on the Day −1 and prior to drug administration on Day 1] were randomized in the study (treatment allocation 5:2). Subjects were housed in the clinic from Day −1 (preferably in the afternoon or evening) to end of study. Additional housing was allowed performed based on the investigator's discretion.
Study drug IV infusion was to be stopped at any time if any of the following occurred: • There was more than 20 mm Hg decrease in systolic or diastolic blood pressure. • There was an isolated drop in Systolic BP<100 mm of Hg. • There was an isolated drop Diastolic BP<60 mm of Hg. • There was a decrease in heart rate of 20 beats per minute or a drop below 50 beats per minute. • Attainment of a RASS of −1 at the end of each 30 minutes infusion period.
All raters were trained in the use of the RASS scale.
Once the participant was drowsy but able to respond to verbal stimulation, the infusion was stopped, and time was recorded.

[5] = SDAT study
[6] = human, in vivo
[7] = schizophrenia study, one subject
Method: Adverse events (AEs), including serious adverse events (SAEs), were assessed, recorded, and reported in accordance with FDA guidance. Should any SAE occur, the study would be stopped until a cause for the SAE was determined.

[8] = test system: subjects suffering from schizophrenia; details: for RASS values after infusion start: schizophrenia patients, per patient

## Cc1cccc([C@H](C)c2cnc[nH]2)c1C [dexmedetomidine hydrochloride]
[1]; Patient No. 1, treatment arm, 0 min
  PEC values after infusion start: 9
[1]; Patient No. 1, treatment arm, 15 min
  PEC values after infusion start: 5
[1]; Patient No. 2, treatment arm, 0 min
  PEC values after infusion start: 16
[1]; Patient No. 2, treatment arm, 15 min
  PEC values after infusion start: 13
[1]; Patient No. 2, treatment arm, 30 min
  PEC values after infusion start: 12
[1]; Patient No. 2, treatment arm, 45 min
  PEC values after infusion start: 11
[1]; Patient No. 2, treatment arm, 60 min
  PEC values after infusion start: 9
[1]; Patient No. 2, treatment arm, 75 min
  PEC values after infusion start: 7
[1]; Patient No. 3, treatment arm, 0 min
  PEC values after infusion start: 12
[1]; Patient No. 3, treatment arm, 15 min
  PEC values after infusion start: 12
[1]; Patient No. 3, treatment arm, 30 min
  PEC values after infusion start: 10
[1]; Patient No. 3, treatment arm, 45 min
  PEC values after infusion start: 7
[1]; Patient No. 3, treatment arm, 60 min
  PEC values after infusion start: 6
[1]; Patient No. 4, treatment arm, 0 min
  PEC values after infusion start: 9
[1]; Patient No. 4, treatment arm, 15 min
  PEC values after infusion start: 9
[1]; Patient No. 4, treatment arm, 30 min
  PEC values after infusion start: 8
[1]; Patient No. 4, treatment arm, 45 min
  PEC values after infusion start: 8
[1]; Patient No. 4, treatment arm, 60 min
  PEC values after infusion start: 7
[1]; Patient No. 4, treatment arm, 75 min
  PEC values after infusion start: 7
[1]; Patient No. 4, treatment arm, 90 min
  PEC values after infusion start: 7
[1]; Patient No. 4, treatment arm, […]
  PEC values after infusion start: 7
[1]; Patient No. 11, treatment arm, 0 min
  PEC values after infusion start: 13
[1]; Patient No. 11, treatment arm, 15 min
  PEC values after infusion start: 13
[1]; Patient No. 11, treatment arm, 30 min
  PEC values after infusion start: 11
[1]; Patient No. 11, treatment arm, 45 min
  PEC values after infusion start: 9
[1]; Patient No. 11, treatment arm, 60 min
  PEC values after infusion start: 9
[1]; Patient No. 11, treatment arm, 75 min
  PEC values after infusion start: 7
[1]; Patient No. 12, treatment arm, 0 min
  PEC values after infusion start: 13
[1]; Patient No. 12, treatment arm, 15 min
  PEC values after infusion start: 13
[1]; Patient No. 12, treatment arm, 30 min
  PEC values after infusion start: 13
[1]; Patient No. 12, treatment arm, 45 min
  PEC values after infusion start: 10
[1]; Patient No. 12, treatment arm, 60 min
  PEC values after infusion start: 10
[1]; Patient No. 12, treatment arm, 75 min
  PEC values after infusion start: 8
[1]; Patient No. 12, treatment arm, 90 min
  PEC values after infusion start: 6
[1]; Patient No. 12, treatment arm, […]
  PEC values after infusion start: 5
[1]; Patient No. 14, treatment arm, 0 min
  PEC values after infusion start: 10
[1]; Patient No. 14, treatment arm, 15 min
  PEC values after infusion start: 9
[1]; Patient No. 14, treatment arm, 30 min
  PEC values after infusion start: 6
[1]; Patient No. 14, treatment arm, 45 min
  PEC values after infusion start: 6
[1]; Patient No. 14, treatment arm, 60 min
  PEC values after infusion start: 5
[1]; Patient No. 14, treatment arm, 75 min
  PEC values after infusion start: 5
[1]; Patient No. 16, treatment arm, 0 min
  PEC values after infusion start: 10
[1]; Patient No. 16, treatment arm, 15 min
  PEC values after infusion start: 9
[1]; Patient No. 16, treatment arm, 30 min
  PEC values after infusion start: 6
[1]; Patient No. 16, treatment arm, 45 min
  PEC values after infusion start: 6
[1]; Patient No. 16, treatment arm, 60 min
  PEC values after infusion start: 7
[1]; Patient No. 16, treatment arm, 75 min
  PEC values after infusion start: 5
[1]; Patient No. 17, treatment arm, 0 min
  PEC values after infusion start: 10
[1]; Patient No. 17, treatment arm, 15 min
  PEC values after infusion start: 8
[1]; Patient No. 17, treatment arm, 30 min
  PEC values after infusion start: 7
[1]; Patient No. 17, treatment arm, 45 min
  PEC values after infusion start: 5
[1]; Schizophrenia Study
  Efficacy (Primary/secondary end points): subjects with PEC score below 7: 9/10 PEC score
[1]; schizophrenia
  patients in the treatment arm with agitation reduced to a minimum (PEC score of 7 or below): 9 out of 10
[2]
  Time to reach Cmax, range: 60 to 150 min
  maximum dexmedetomidine concentrations, range: 102 to 380 pg/mL
[2]; 0 h
  Plasma concentrations: 0.00 pg/mL
[2]; 2 h
  Plasma concentrations: 318.05 pg/mL
[2]; Plasma concentrations
  concentration at 0 h: 0 ng/mL
  concentration at 2 h: 0.378 ng/mL
[3]; Example 1A
  time to mild sedation after starting the dose which produced the desired effect: ≤ 30 min
[3]; Example 1A, IV infusion 0.1-0.6 mcg/kg/hr
  subjects in whom mild sedation (RASS score of −1) was evident: 11/12
[3]; Healthy Volunteers Cohort 1
  Efficacy (Primary/secondary end points): subjects reaching RASS-1: 6/6 RASS-1
[3]; Healthy Volunteers Cohort 1, continuous infusion
  Range of efficacious dose of IV dexmedetomidine hydrochloride: 0.3 to 0.5 µg/kg/h
[3]; Healthy Volunteers Cohort 2
  Efficacy (Primary/secondary end points): subjects reaching RASS-1: 5/6 RASS-1
[3]; Healthy Volunteers Cohort 2, continuous infusion
  Range of efficacious dose of IV dexmedetomidine hydrochloride: 0.3 to 0.4 µg/kg/h
[3]; healthy elderly volunteers, per subject, endpoint/stopping criterion reached
  Endpoint: RASS −2; also recorded: RASS −1
[3]; healthy elderly volunteers, per subject, rate raised every 30 min
  IV infusion rate at which desired effect/stopping criteria achieved: 0.3 mcg/kg/hr (4×) and 0.4 mcg/kg/hr (7×) and 0.5 mcg/kg/hr
[3]; in vivo
  effects on blood pressure and/or heart rate at exposure achieving mild sedation: did not produce clinically meaningful effects on blood pressure and/or heart rate
  tolerability: well-tolerated
[3]; p<0.02, Sign test
  dose required by males compared to females: twice
[3]; results of cohorts 1 and 2
  optimal starting dose: 0.3 µg/kg/h
[4]; Alzheimer's Study
  Efficacy (Primary/secondary end points): subjects reaching RASS-1: 7/10 RASS-1
[4]; Alzheimer's Study, continuous infusion
  Range of efficacious dose of IV dexmedetomidine hydrochloride: 0.2 to 0.5 µg/kg/h
[4]; SDAT
  time after infusion discontinuation at which subjects became alert and remained calm: around 30 minutes
[4]; SDAT patients
  IV infusion rate, range: 0.2 to 0.5 µg/kg/h
[4]; SDAT patients, 00:00 Hr, listed as Treatment
  RASS score: 2 (5×) and 1 (5×)
[4]; SDAT patients, 02:30 Hr
  RASS score: 1
[4]; SDAT, extent of exposure
  Total dose, range: 0.15 to 0.75 µg/kg
[4]; SDAT, n=7
  Time period for which a calming effect persisted after discontinuation of study drug: 5 min
  Time period for which a calming effect persisted after discontinuation of study drug, Max: 45 min
  Time period for which a calming effect persisted after discontinuation of study drug, Mean ± SD: 28.6 ± 15.74 min
  Time period for which a calming effect persisted after discontinuation of study drug, Median: 30 min
  optimal dose at which a RASS score of −1 was achieved, Max: 0.5 µg/kg/h
  optimal dose at which a RASS score of −1 was achieved, Mean ± Sd (mean infusion rate): 0.34 µg/kg/h
  optimal dose at which a RASS score of −1 was achieved, Median: 0.30 µg/kg/h
  optimal dose at which a RASS score of −1 was achieved, Min: 0.2 µg/kg/h
  optimal dose at which a RASS score of −1 was achieved, Mode: 0.30 µg/kg/h
[4]; SDAT, n=7, listed as Test
  optimal dose at which a RASS score of −1 was achieved, Mean ± Sd (mean infusion rate): 0.34 ± 0.098 µg/kg/h
[4]; SDAT, n=7, listed as dexmedetomidine
  optimal dose at which a RASS score of −1 was achieved, Mean ± Sd (mean infusion rate): 0.34 µg/kg/h
[4]; SDAT, out of 10 subjects
  subjects who achieved a RASS score of −1: 7
[5]
  adverse events: No adverse event was reported
[6]
  Time to reach Cmax, range: 15 to 105 min
[7]
  AE Term: Headache
[7]; headache
  AE Outcome: Recovered
  AE Relationship: Possibly Related
  AE Severity: Moderate
[8]; Schizophrenia Study
  Efficacy (Primary/secondary end points): subjects reaching RASS-1: 9/10 RASS-1
[8]; Schizophrenia Study, continuous infusion
  Range of efficacious dose of IV dexmedetomidine hydrochloride: 0.2 to 0.4 µg/kg/h
[8]; schizophrenia
  patients in the treatment arm who achieved a RASS score of at least −1: 9 out of 10
[8]; infusion 15 minutes
  RASS values after infusion start: −2 and −1
[8]; infusion 30 minutes
  RASS values after infusion start: 0
[8]; infusion 75 minutes
  RASS values after infusion start: −1
[8]; infusion 90 minutes
  RASS values after infusion start: 0
[8]; infusion […]
  RASS values after infusion start: 0
[8]; schizophrenic patients
  Mean infusion rate: 0.36 µg/kg/h
